Reference: patent US4894459A, “Process for the preparation of morphologically homogeneous forms of thiazole derivatives” (Richter Gedeon Vehyeszeti Gyar Rt., priority 1986, dated 1990)
Converted amounts (≈) assume the structure as drawn.

How the values were obtained:
[1] = medium with a pH lower than 3
[2] = system: histamine-H2 receptor; details: well known; cited from earlier work
[3] = for Deformity ratio: ratio of longitudinal axis and greatest diameter, average of 250 grains
Procedure: (G) The Deformity Ratio of the Crystals
Deformity ratio means the ratio of the longitudinal axis and greatest diameter of the crystal.
The data were determined from the measurement of 250-250 grains by averaging.

[4] = for Electrostatic charging: amount of stuck material after knocking / Electrostatic charging: amount of stuck material without knocking: 37 g in glass dish of 120 mm, 1 minute rubbing; for Electrostatic charging: amount of stuck material after knocking: dish knocked 10 times
Procedure: (J) Electrostatic Charging
As there is no simple procedure to be carried out in an organic chemistry laboratory, the data presented below were measured as follows: Into a glass dish of 120 mm diameter 37 g of one of the forms were transferred and then the sample was stirred for 1 minute with rubbing with a flattened end glass-rod. Following this, the content of the dish was poured out without shaking, and the amount of stuck material was measured on a balance. Then the measurement was repeated so that the dish was knocked 10 times.

[5] = form "A" vs form "B"
[6] = for Compaction ratio: with / without compaction; for Bulk density with compaction: hand-vibrator for 5 minutes
[7] = for Rolling angle (basic angle of the cone): funnel with tube of 5 mm diameter, opening 10 cm above the level of the material
Procedure: The data given here were measured according to the following scheme:
The form to be tested was filled into a funnel provided with a tube of 5 mm diameter, then the funnel was set into a position so that its opening was 10 cm above the level of the material.

[8] = physchem; details: for solubility at 5 h: distilled water, water, Saturation solubility, 5 hours stirring, UV at 277 nm
Procedure: The investigation was made as follows: the different forms were stirred in distilled water for 5 hours, and the concentration of the material in solution was determined by ultraviolet spectroscopy at 277 nm wavelength.

[9] = 10 mg in 100 ml distilled water
[10] = 95:5 mixtures, water, 24 hours at 60° C.
Procedure: (I) Thermodynamic Stability
The test was made as follows: a mixture of the different forms in a ratio of 95:5 for both derivatives contaminated with the other polymorph was prepared, then the system was stirred with a magnetic stirrer for 24 hours at 60° C. so that water only covered the crystals. The crystals were then filtered and morphologically studied.

Row | Deformity ratio [3] | Electrostatic charging: amount of stuck material after knocking [4] [g] | Electrostatic charging: amount of stuck material without knocking [4] [g] | Compaction ratio [6] | Bulk density with compaction [6] [g/L] | Bulk density without compaction [6] [g/L] | Rolling angle (basic angle of the cone) [7] | Dynamic solubility at 2 min [9] [µg/mL] | Dynamic solubility at 5 min [9] [µg/mL] | Dynamic solubility at 10 min [9] [µg/mL] | Dynamic solubility at 1 hour [9] [µg/mL] | Thermodynamic stability [10] | Compound | other results
1 |  |  |  |  |  |  |  |  |  |  |  |  | N=C(N)Nc1nc(CSCCC(=N)NS(N)(=O)=O)cs1 [Famotidine, N-sulfamoyl-3-(2-guanidino-thiazole-4-yl-methylthio)-propionamidine] | Hydrolysis of the amidino group [1]: highly capable of hydrolysis; histamine-H2 receptor blocking effect [2]: excellent
2 | 1.40 | 0.5 | 2.8 | 1.38 | 960 | 695 | 41-42 ° | 19 | 25 | 42 | 72 | stabile | NC(N)=Nc1nc(CSCCC(N)=NS(N)(=O)=O)cs1 [Form "A", N-sulfamoyl-3-(2-guanidino-thiazole-4-yl-methylthio)-propionamidine] | Handling and stability, comparison in words [5]: unambiguously more advantageous; solubility at 5 h [8]: 860 µg/mL (≈ 2550 µM)
3 | 4.70 | 10.0 | 13 | 1.47 | 505 | 340 | more than 55 ° | 25 | 40 | 51 | 76 | metastabile | NC(N)=Nc1nc(CSCCC(N)=NS(N)(=O)=O)cs1 [Form "B", N-sulfamoyl-3-(2-guanidino-thiazole-4-yl-methylthio)-propionamidine] | Deformity ratio, times higher than form "A" ([3]; form "B" vs form "A"): 3.3 times; Electrostatic charging: amount attracted, times more than form "A" ([4]; form "B" vs form "A"): 20 times; Slope of piled up sample at the beginning ([7]; rolling angle test, footnote x, correct rolling angle not measurable): 80-85 °; solubility at 5 h ([8]; unit given as mg): 980 µg/mL (≈ 2900 µM); Saturation solubility, comparison in words ([8]; form "B" vs form "A"): significantly higher
